Assays:
BRD4 domain 1 = BRD4 domain 1 (Homo sapiens, UniProt O60885); assay: Kd determination of inhibitors binding to BRD4 domain 1 (Epic label-free platform); conditions: direct binding to immobilized BRD4 domain 1; tripling dilution series from 20µM; about 1hr equilibrium; rounded to whole number; read-out: Epic Kd BRD41
Method: (§1) Kd Determination of Inhibitors Binding to BRD4 Domain 1 and Domain 2
(§2) The binding of small molecule inhibitors to either BRD4 domain 1 or domain 2 were determined using the Epic, high-throughput, label-free platform (Corning, Lowell, MA). The Epic instrument incorporates an evanescent waveguide sensor within each well of its proprietary 384-well microplates. Direct binding of inhibitors to BRD4 immobilized onto the microplate well surface can be detected by exposing the waveguide to a broadband light source. The resulting resonant wavelength shift (measured in picometers (pm)) is proportional to the mass bound to the surface. Epic biochemical plates (Corning, Lowell, MA) were activated by adding 15 µL/well of 200 mM EDC and 50 mM Sulfo-NHS (Pierce Thermo Scientific, Rockford, IL) and incubated for 60 minutes at room temperature. Plates were washed three times with MilliQ water and dried by centrifugation (1 minute at 400 rpm). BRD4 immobilization was accomplished by resuspending the protein at a concentration of 150 µg/mL in 20 mM HEPES (pH 7) and adding 10 µL/well. […] Compound/inhibitor binding was determined by calculating difference between the baseline (first read) and second read. The resulting binding response was fitted to a single site binding isotherm in order to determine an equilibrium dissociation constant (Kd).

BRD4 domain 2 = BRD4 domain 2 (Homo sapiens, UniProt O60885); assay: Kd determination of inhibitors binding to BRD4 domain 2 (Epic label-free platform); conditions: direct binding to immobilized BRD4 domain 2; tripling dilution series from 20µM; about 1hr equilibrium; rounded to whole number
Method: as §1, §2

SMILES	Kd (BRD4 domain 1) [µM]	Kd (BRD4 domain 2) [µM]
COC[C@H]1CCC[C@H]1NS(=O)(=O)c1cc(-c2c(C)noc2C)cc2ncccc12 [Compound 63, 7-(3,5-dimethylisoxazol-4-yl)-N-((1R,2S)-2-(methoxymethyl)cyclopentyl)quinoline-5-sulfonamide]	14.6	9.56
Cc1noc(C)c1-c1cc(S(=O)(=O)NC2CCCC2)c2cc(N3CCOC3=O)c(=O)[nH]c2c1 [Compound 64, N-cyclopentyl-7-(3,5-dimethylisoxazol-4-yl)-2-oxo-3-(2-oxooxazolidin-3-yl)-1,2-dihydroquinoline-5-sulfonamide]	4.85	3.21
Cc1noc(C)c1-c1cc(S(=O)(=O)NC2CC2)c2ccc(=O)[nH]c2c1 [Compound 68, N-cyclopropyl-7-(3,5-dimethylisoxazol-4-yl)-2-oxo-1,2-dihydroquinoline-5-sulfonamide]	13.8	2.92
Cc1noc(C)c1-c1cc(S(=O)(=O)NC2CCCC2)c2cc(C(N)=O)c(=O)[nH]c2c1 [Compound 69, 5-(N-cyclopentylsulfamoyl) -7-(3,5-dimethylisoxazol-4-yl)-2-oxo-1,2-dihydroquinoline-3-carboxamide]	7.27	1.19
Cc1noc(C)c1-c1cc(S(=O)(=O)NC2CCCC2)c2cc(C(=O)O)c(=O)[nH]c2c1 [Compound 70, 5-(N-cyclopentylsulfamoyl) -7-(3,5-dimethylisoxazol-4-yl)-2-oxo-1,2-dihydroquinoline-3-carboxylic acid]	8.23	1.96
Cc1noc(C)c1-c1cc(S(=O)(=O)N[C@@H]2CCC[C@H]2C(=O)N2CCN(C)CC2)c2cccnc2c1 [Compound 71, 7-(3,5-dimethylisoxazol-4-yl)-N-((1R,2R)-2-(4-methylpiperazine-1-carbonyl)cyclopentyl) quinoline-5-sulfonamide]	4.89	4.15
CC(=O)NCCNC(=O)[C@@H]1CCC[C@H]1NS(=O)(=O)c1cc(-c2c(C)noc2C)cc2ncccc12 [Compound 73, (1R,2R)-N-(2-acetamidoethyl)-2-(7-(3,5-dimethylisoxazol-4-yl)quinoline-5-sulfonamido)cyclopen tanecarboxamide]	> 20	16.7
Cc1noc(C)c1-c1cc(S(=O)(=O)NCCN)c2cccnc2c1 [Compound 74, N-(2-aminoethyl)-7-(3,5-dimethylisoxazol-4-yl)quinoline-5-sulfonamide]	14.1	17.5
Cc1noc(C)c1-c1cc(S(=O)(=O)NC2CCCC2)c2cc(C(=O)N(C)C)c(=O)[nH]c2c1 [Compound 75, 5-(N-cyclopentylsulfamoyl) -7-(3,5-dimethylisoxazol-4-yl)-N,N-dimethyl-2-oxo-1,2-dihydroquinoline-3 - carboxamide]	10.7	8.94
Cc1noc(C)c1-c1cc(S(=O)(=O)N[C@@H](CC(C)(C)C)C(=O)N2CCNCC2)c2cccnc2c1 [Compound 81, (S)-N-(4,4-dimethyl-1-oxo-1-(piperazin-1-yl)pentan-2-yl)-7-(3,5-dimethylisoxazol-4-yl)quinoline-5-sulfonamide]	13.7	> 20
Cc1noc(C)c1-c1cc(S(=O)(=O)NC2CC2(C)C)c2cccnc2c1 (stereo not shown) [Compound 83]	16.7	16.6
Cc1noc(C)c1-c1cc(S(=O)(=O)NC2CCCC2)c2nccnc2c1 [Compound 86, N-cyclopentyl-7-(3,5-dimethylisoxazol-4-yl)quinoxaline-5-sulfonamide]	3.48	2.46
Cc1noc(C)c1-c1cc(S(=O)(=O)NC2CCCC2)c2ncc(=O)[nH]c2c1 [Compound 87, N-cyclopentyl-7-(3,5-dimethylisoxazol-4-yl)-2-oxo-1,2-dihydroquinoxaline-5-sulfonamide]	2.2	1.34

These reach a lower Kd (BRD4 domain 1). Values come first.

Kd (BRD4 domain 1) [µM]	Kd (BRD4 domain 2) [µM]	SMILES
1.02	0.645	Cc1noc(C)c1-c1cc(S(=O)(=O)NC2CCCC2)c2cc(N(C)C)c(=O)[nH]c2c1 [Compound 61, N-cyclopentyl-3-(dimethylamino)-7-(3,5-dimethylisoxazol-4-yl)-2-oxo-1,2-dihydroquinoline-5-sulfonamide]
0.85	0.526	CNc1cc2c(S(=O)(=O)NC3CCCC3)cc(-c3c(C)noc3C)cc2[nH]c1=O [Compound 62, N-cyclopentyl-7-(3,5-dimethylisoxazol-4-yl)-3-(methytamino)-2-oxo-1,2-dihydroquinoline-5-sulfonamide]
0.981	0.546	Cc1noc(C)c1-c1cc(S(=O)(=O)NC2CCCC2)c2cc(N3CCN(C)CC3)c(=O)[nH]c2c1 [Compound 65, N-cyclopentyl-7-(3,5-dimethylisoxazol-4-yl)-3-(4-methylpiperazin-1-yl)-2-oxo-1,2-dihydroquinoline-5-sulfonamide]
0.52	0.421	Cc1noc(C)c1-c1cc(S(=O)(=O)NC2CCCC2)c2cc(NC3CCN(C)CC3)c(=O)[nH]c2c1 [Compound 66, N-cyclopentyl-7-(3,5-dimethylisoxazol-4-yl)-3-((1-methylpiperidin-4-yl)amino)-2-oxo-1,2-dihydroquinoline-5-sulfonamide]
0.444	0.404	Cc1noc(C)c1-c1cc(S(=O)(=O)NC2CCCC2)c2cc(NCc3cccnc3)c(=O)[nH]c2c1 [Compound 67, N-cyclopentyl-7-(3,5-dimethylisoxazol-4-yl)-2-oxo-3-((pyridin-3-ylmethyl)amino)-1,2-dihydroquinoline-5-sulfonamide]
1.44	2.33	Cc1noc(C)c1-c1cc(S(=O)(=O)N[C@@H]2CCC[C@H]2C(=O)NCCN)c2cccnc2c1 [Compound 72, (1R,2R)-N-(2-aminoethyl)-2-(7-(3,5-dimethylisoxazol-4-yl)quinoline-5-sulfonamido)cyclopen tanecarboxamide]
0.416	0.497	Cc1noc(C)c1-c1cc(S(=O)(=O)NC2CCCC2)c2cc(NCC3CC3)c(=O)[nH]c2c1 [Compound 76, N-cyclopentyl-3-((cyclopropylmethyl)amino)-7-(3,5-dimethylisoxazol-4-yl)-2-oxo-1,2-dihydroquinoline-5-sulfonamide]
0.896	0.61	Cc1noc(C)c1-c1cc(S(=O)(=O)NC2CCCC2)c2cc(NC(C)C)c(=O)[nH]c2c1 [Compound 77, N-cyclopentyl-7-(3,5-dimethylisoxazol-4-yl)-3-(isopropylamino)-2-oxo-1,2-dihydroquinoline-5-sulfonamide]
0.744	0.392	Cc1noc(C)c1-c1cc(S(=O)(=O)NC2CCCC2)c2cc(NCCN)c(=O)[nH]c2c1 [Compound 78, 3-((2-aminoethyl)amino)-N-cyclopentyl-7-(3,5-dimethylisoxazol-4-yl)-2-oxo-1,2-dihydroquinoline-5-sulfonamide]
1.35	0.607	Cc1noc(C)c1-c1cc(S(=O)(=O)NC2CCCC2)c2cc(NCC(F)F)c(=O)[nH]c2c1 [Compound 79, N-cyclopentyl-3-((2,2-difluoroethyl)amino)-7-(3,5-dimethylisoxazol-4-yl)-2-oxo-1,2-dihydroquinoline-5-sulfonamide]
1.73	1.39	Cc1noc(C)c1-c1cc(S(=O)(=O)NC2CC2)c2ccc(N3CCNCC3)nc2c1 [Compound 80, N-cyclopropyl-7-(3,5-dimethylisoxazol-4-yl)-2-(piperazin-1-yl)quinoline-5-sulfonamide]
1.92	1.9	Cc1noc(C)c1-c1cc(S(=O)(=O)N[C@@H]2CCC[C@H]2O)c2ccc(=O)[nH]c2c1 [Compound 82, 7-(3,5-dimethylisoxazol-4-yl)-N-((1R,2R)-2-hydroxycyclopentyl)-2-oxo-1,2-dihydroquinoline-5-sulfonamide]
2	18.2	Cc1noc(C)c1-c1cc(S(=O)(=O)NC2(C(F)(F)F)CC2)c2cccnc2c1 [Compound 84, 7-(3,5-dimethylisoxazol-4-yl)-N-(1-(trifluoromethyl)cyclopropyl)quinoline-5-sulfonamide]
0.483	0.429	COCCNc1cc2c(S(=O)(=O)N[C@@H]3CCC[C@H]3O)cc(-c3c(C)noc3C)cc2[nH]c1=O [Compound 85, 7-(3,5-dimethylisoxazol-4-yl)-N-((1R,2R)-2-hydroxycyclopentyl)-3-((2-methoxyethyl)amino)-2-oxo-1,2-dihydroquinoline-5-sulfonamide]
1.06	0.943	Cc1noc(C)c1-c1cc(S(=O)(=O)NC2CCCC2)c2cc(NCCN(C)C)c(=O)[nH]c2c1 [Compound 88, N-cyclopentyl-3-((2-(dimethylamino)ethyl)amino)-7-(3,5-dimethylisoxazol-4-yl)-2-oxo-1,2-dihydroquinoline-5-sulfonamide]
0.881	0.656	Cc1noc(C)c1-c1cc(S(=O)(=O)NC2CCCC2)c2cc(NCCN3CCCC3)c(=O)[nH]c2c1 [Compound 89, N-cyclopentyl-7-(3,5-dimethylisoxazol-4-yl)-2-oxo-3-((2-(pyrrolidin-1-yl)ethyl)amino)-1,2-dihydroquinoline-5-sulfonamide]
